One data set is described as follows: WST-8 cytotoxicity assay. As to conditions: human, PCS-201-012 healthy primary dermal fibroblast cells, PCS-201-012 healthy fibroblast cells, WST-8, n = 4, read-out: Cytotoxic activity IC50. In kind it is cell-based. How it is done: (§1) The cells in culture were frequently sub-cultured, about 2–3 times weekly, until they reached a confluence of 80–90%. The experiments were organised into seven cell groups as follows: group I served as the control, while groups II through VII were pre-treated with varying dosages of the synthesised ureas (ranging from 12.5 µM to 500 µM). The cytotoxic potential of these ureas was assessed in vitro using the Cell Viability Detection Kit-8 (CVDK-8, Ecotech Biotechnology, Erzurum, Turkey), a method based on WST-8 quantification for human primary dermal fibroblasts and cervical cancer cells. Healthy fibroblast, HeLa, and SH-SY5Y cells were allocated in 96-well plates, with each well containing 5 × 10^3 cells in 100 µL of DMEM:F12 (supplemented with 1% penicillin/streptomycin and 10% FBS). After an overnight growth, these cells were exposed to specified concentrations of the synthesised ureas for a duration of 48 h at 37 °C in a 5% CO2 atmosphere. Cisplatin acted as the positive control with concentration gradients of 0–250 µM for HeLa cells and 0–20 µM for the SH-SY5Y cells. Post incubation, in sterile, dimly lit conditions, 10% WST-8 solution was added to every well and further incubated at 37 °C within 5% CO2 for another 3–4 h. The optical density of the 96-well plate was gauged at a 450 nm wavelength using a spectrophotometer (BioTek, EPOCH, Santa Clara, CA). The control group’s main purpose was to measure the absorbance of just the cells and the growth medium.
(Tetrazolium assays rely on reduction of a dye to a coloured formazan, in cell work by metabolically active cells.)

Data set [1] relates to Staphylococcus aureus MRSA ATCC 43300. Put plainly: Disc diffusion method. In kind it is cell-based. As to conditions: for Standard antibiotic disc, inhibitory zone diameter: Staphylococcus aureus MRSA. How it is done:
(§2) The bacteria employed for evaluation included Acinetobacter baumannii ATCC 1605, Enterococcus faecalis ATCC 49452, Pseudomonas aeruginosa ATCC 9027, and Staphylococcus aureus MRSA ATCC 43300. These strains were sourced from the Molecular Biology and Genetics Laboratory at Erzurum Technical University. They were immersed in Mueller-Hinton Broth (MHB) and then incubated at a temperature of 37 °C for a duration of 16–24 h.
(§3) Bacteria were adjusted to a McFarland standardisation of 0.5, equivalent to a cell density of 1.5 × 10^8/ml, and were then introduced into MHB. Subsequently, a 100 μl volume of this bacterial mixture was spread onto Mueller-Hinton agar plates. Sterile empty discs were then treated with the formulated ureas at concentrations of 1000, 500, and 250 µM. Oflaxin ([…]) and netilmicin ([…]) were used as positive controls, while DMSO served as the negative control. The plates were then placed in an incubator at 37 °C for a period ranging from 24 to 72 h, depending on the optimal conditions. Post incubation, the diameter of the inhibition zones was gauged to determine the antibacterial efficacy. This entire process was replicated three times.
For orientation: Agar diffusion results depend on both activity and mobility in agar.

The test system of data set [2] is Acinetobacter baumannii ATCC 1605. Put plainly: Disc diffusion method. Type of data set: cell-based. How it is done:
as §2, §3

Data set [3] deals with Pseudomonas aeruginosa ATCC 9027. Put plainly: Disc diffusion method. Type of data set: cell-based. As to conditions: for zone of inhibition at 250 µM: ATCC9027, 250 µM; for zone of inhibition at 250 µM / zone of inhibition at 500 µM / zone of inhibition at 1000 µM: read-out: Disc diffusion test, inhibitory zone diameter; for zone of inhibition at 500 µM: ATCC9027, 500 µM; for zone of inhibition at 1000 µM: ATCC9027, 1000 µM. As to the method: as §2, §3

The test system of data set [4] is Enterococcus faecalis ATCC 49452. Put plainly: Disc diffusion method. Type of data set: cell-based. As to the method: as §2, §3
Data set [5] deals with Staphylococcus aureus MRSA ATCC 43300. Description: Micro-well dilution assay (MIC). In kind it is cell-based. As to the method: as §2
(§4) The synthesised ureas’ minimum inhibitory concentrations (MICs) against the bacterial samples were ascertained using the microdilution broth technique. Utilising a method of twofold serial dilutions, the ureas were diluted to concentrations spanning from […]. The bacterial turbidity was set to match the 0.5 McFarland standard. In the 96-well plates, each well received 100 μl of MHB and 5 μl of the bacteria being tested. For the negative control, 195 μl of MHB and 5 μl of the bacterial sample were added. The plate was then covered with a sterile seal and allowed to incubate for 24 h at a temperature of 37 °C. Post incubation, the growth of the bacteria was assessed at 600 nm using the Fluoroskan Ascent® FL. The MIC represented the smallest amount of the chemical that effectively halted bacterial growth. This procedure was conducted three times.

In data set [6] the test system is Acinetobacter baumannii ATCC 1605. Description: Micro-well dilution assay (MIC). Type of data set: cell-based. As to the method:
as §2, §4

In data set [7] the test system is Pseudomonas aeruginosa ATCC 9027. Put plainly: Micro-well dilution assay (MIC). In kind it is cell-based. As to conditions: for MIC: ATCC9027. How it is done: as §2, §4
Data set [8] relates to Enterococcus faecalis ATCC 49452. Put plainly: Micro-well dilution assay (MIC). Type of data set: cell-based. As to the method: as §2, §4
A further data set deals with HeLa cells. Description: WST-8 cytotoxicity assay. As to conditions: for IC50: Homo sapiens, HeLa cells, 48 h, WST-8, n = 4, read-out: Cytotoxic activity IC50; for SI value (HeLa cells): IC50 PCS-201-012 fibroblasts / IC50 HeLa, n = 4. Type of data set: cell-based, human. As to the method:
as §1

Another data set deals with SH-SY5Y cells. Put plainly: WST-8 cytotoxicity assay. As to conditions: for IC50: SH-SY5Y, 48 h, WST-8, n = 4, read-out: Cytotoxic activity IC50; for SI value (SH-SY5Y cells): IC50 PCS-201-012 fibroblasts / IC50 SH-SY5Y, n = 4. Type of data set: cell-based, human. As to the method:
as §1

[9] abbreviates: Staphylococcus aureus, read-out: Disc diffusion test, inhibitory zone diameter.

A word on the melting point: it is the temperature, or range, at which the solid turns liquid. By IC50 is commonly meant the concentration at which inhibition is half-maximal. The term MIC denotes the lowest concentration that inhibits growth of the organism. Read a high MIC as a less susceptible organism.

The structures appear in SMILES notation. In brackets after ≈: the same amount, converted by molar mass. Where two headings read alike, the source gives them in different places.

`COc1cccc(CCNC(=O)NC2CCCc3c(OC)cccc32)c1` (stereo not drawn) [Compound 16, 1-(5-Methoxy-1,2,3,4-tetrahydronaphthalen-1-yl)-3-(3-methoxyphenethyl)urea] came in with a melting point of 155 to 157 °C. Besides, the IC50 at 48 h in the data set “WST-8 cytotoxicity assay” is more than 500 µM. In addition, in [1] (setting [9]), the zone of inhibition at 250 µM turned out to be 5 mm, the zone of inhibition at 500 µM was 6 mm and the zone of inhibition at 1000 µM is 13 mm. For the same compound, the zone of inhibition at 250 µM in data set [2] (ATCC1605, 250 µM, read-out: Disc diffusion test, inhibitory zone diameter) is 5 mm. For the same compound, the zone of inhibition at 500 µM in data set [2] (ATCC1605, 500 µM, read-out: Disc diffusion test, inhibitory zone diameter) is 10 mm. Further, in [2] (ATCC1605, 1000 µM, read-out: Disc diffusion test, inhibitory zone diameter), the zone of inhibition at 1000 µM was found to be 13 mm. Besides, in data set [3], the zone of inhibition at 250 µM was 7 mm, the zone of inhibition at 500 µM is 8 mm and the zone of inhibition at 1000 µM stood at 10 mm. The zone of inhibition at 500 µM in data set [4] (ATCC49452, 500 µM, read-out: Disc diffusion test, inhibitory zone diameter) is 6 mm. Also, the zone of inhibition at 1000 µM in data set [4] (ATCC49452, 1000 µM, read-out: Disc diffusion test, inhibitory zone diameter) was found to be 7 mm. In data set [5], this compound registered an MIC of 7.81 µM (≈ 2.77 µg/mL). In addition, in data set [6] (ATCC1605), the MIC was found to be 7.81 µM (≈ 2.77 µg/mL). Besides, the MIC in [7] was 7.81 µM (≈ 2.77 µg/mL). In addition, the minimum inhibitory concentration (MIC) in data set [8] (ATCC49452) was determined as 3.9 µM (≈ 1.38 µg/mL). In addition, in the data set on HeLa cells, the half-inhibitory concentration (IC50) turned out to be 32.4 µM and the “SI value (HeLa cells)” value turned out to be 15.4. Further, in the data set on SH-SY5Y cells (Homo sapiens), the IC50 was 19.1 µM. In addition, the “SI value (SH-SY5Y cells)” value in the data set with SH-SY5Y cells is reported as 26.10.

On to `COc1ccccc1CCNC(=O)NC1CCCc2c(OC)cccc21` (stereo not drawn) [Compound 15, 1-(5-Methoxy-1,2,3,4-tetrahydronaphthalen-1-yl)-3-(2-methoxyphenethyl)urea], for which the melting point fell in the range of 174 to 176 °C. Further, in the data set “WST-8 cytotoxicity assay”, the IC50 at 48 h turned out to be 226 µM. Moreover, in [1] (setting [9]), the zone of inhibition at 500 µM came to 5 mm and the zone of inhibition at 1000 µM amounted to 6 mm. Also, in data set [3], the zone of inhibition at 250 µM turned out to be 5 mm, the zone of inhibition at 500 µM worked out at 5 mm and the zone of inhibition at 1000 µM worked out at 5 mm. Moreover, in data set [5], the minimum inhibitory concentration (MIC) is 15.6 µM (≈ 5.54 µg/mL). In [7], the MIC came out at 15.6 µM (≈ 5.54 µg/mL). For the same compound, in the data set on HeLa cells, the IC50 came to 142 µM and the “SI value (HeLa cells)” value turned out to be 1.58. In addition, the half-inhibitory concentration (IC50) with SH-SY5Y cells (Homo sapiens) turned out to be 8.93 µM. In the data set on SH-SY5Y cells, the “SI value (SH-SY5Y cells)” value was 25.26 and the IC50 came out at 8.9 µM.

Regarding `CCN[C@@H]1C[C@H](N)[C@@H](O[C@H]2OC(CN)=CC[C@H]2N)[C@H](O)[C@H]1O[C@H]1OC[C@](C)(O)[C@H](NC)[C@H]1O` [NET30, netilmycin, reference compound], the “Standard antibiotic disc, inhibitory zone diameter” value in data set [1] (30 μg/disc) came to 21 mm; in [2] (30 μg/disc), 13 mm; in data set [3] (30 μg/disc) it was 16 mm; in [4] (30 μg/disc), 9 mm. The “MIC of standard antibiotics” value in data set [5] stood at 0.8 µg/mL; in data set [6] it was 4 µg/mL; in data set [7] it was 4 µg/mL; in data set [8] it was 32 µg/mL.

As for `CC1COc2c(N3CCN(C)CC3)c(F)cc3c(=O)c(C(=O)O)cn1c23` (stereo not drawn) [OFX, ofloxacin, reference compound], the “Standard antibiotic disc, inhibitory zone diameter” value was 24 mm in [1] (10 μg/disc), 16 mm in data set [2] (10 μg/disc), 23 mm in data set [3] (10 μg/disc) and 11 mm in [4] (10 μg/disc). Also, the “MIC of standard antibiotics” value in data set [5] was 1.2 µg/mL; in [6], 0.5 µg/mL; in data set [7], 11.4 µg/mL; in [8] it was 2.5 µg/mL.

(Values after publication PMC11721939, “Novel tetrahydronaphthalen-1-yl-phenethyl ureas: synthesis and dual antibacterial-anticancer activities” (Journal of Enzyme Inhibition and Medicinal Chemistry, 2023).)
